Read-outs that look alike come from different tables or passages of the source.
Experiments:
NET [1] = format: binding, rat
DAT [2] = target: T1, DAT (Rattus norvegicus, UniProt P23977); experiment: biochemical; format: binding
T1 construct: their brains removed to an ice-cooled dish for dissection of the caudate putamen; from tissue; host or cells: rat caudate putamen homogenate

SERT [3] = target: T2, SERT (Rattus norvegicus, UniProt P31652); experiment: [3H]Citalopram Binding Assay, rat midbrain membranes; settings: for Ki: rat brain membranes, read-out: SERT [3H]citalopram Ki ± SEM
T2 construct: Membranes from frozen rat midbrain were homogenized; from tissue; host or cells: rat midbrain membranes

muscarinic M1 receptor [4] = target: T3, muscarinic M1 receptor (Rattus norvegicus, UniProt P08482); experiment: [3H]Pirenzepine Binding Assay, rat brain membranes
T3 construct: Membranes from frozen rat brains excluding cerebellum were thawed; from tissue; host or cells: rat brain (excluding cerebellum) membranes
T3 sequence (P08482 1-460): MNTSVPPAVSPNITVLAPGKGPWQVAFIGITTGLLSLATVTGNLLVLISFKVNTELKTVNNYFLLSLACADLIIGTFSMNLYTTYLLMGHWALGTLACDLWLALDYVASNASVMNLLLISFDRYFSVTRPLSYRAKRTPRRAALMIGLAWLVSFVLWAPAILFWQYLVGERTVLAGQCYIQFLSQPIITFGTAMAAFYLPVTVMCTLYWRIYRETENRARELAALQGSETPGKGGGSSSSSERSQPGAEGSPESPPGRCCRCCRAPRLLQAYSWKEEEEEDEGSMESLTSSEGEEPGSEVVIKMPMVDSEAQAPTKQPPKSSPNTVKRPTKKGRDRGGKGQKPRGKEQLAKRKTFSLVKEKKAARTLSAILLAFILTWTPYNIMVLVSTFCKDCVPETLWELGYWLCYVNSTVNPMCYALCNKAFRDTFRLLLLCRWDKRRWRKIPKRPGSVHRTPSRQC

[5] = target: T4, dopaminergic transporter sites (Mus musculus, UniProt Q61327); experiment: In vivo binding of [125I]RTI-121 (displacement in striatum); settings: mice
T4 construct: Whole brains were rapidly removed and striatum and cerebellum were dissected on ice; from tissue; host or cells: mouse striatum, in vivo occupancy
From the text: In vivo binding of [^125I]RTI-121. Each animal received an i.v. injection of 2 μCi of [^125I]RTI-121. Two hours after administration of [^125I]RTI-121, the animals were sacrificed by cervical dislocation. In each mouse, displacement of [^125I]RTI-121 was examined by giving an i.p. injection of one of the displacers at various doses and times relative to sacrifice, Displacement by test drugs at various doses was examined at various times after their injection, with each data point determined in sets of approximately six mice. Whole brains were rapidly removed and striatum and cerebellum were dissected on ice.
Regional radioactivity levels were divided by weight (gram) of the tissue (CPM/tissue weight). Specific binding was calculated as CPM/tissue weight in striatum divided by cerebellum minus 1 (S/C−1), which is based on the observation that dopaminergic transporter sites are highly concentrated in the striatum and relatively absent in the cerebellum. These values were expressed as a percentage of specific binding after vehicle injection. Data were analyzed using two-way analysis of variance (ANOVA), and a post-hoc Tukey's test was used to determine significance of effects for individual doses at different time periods following IP injection of compound 1a (FIG. 3A), 1b (FIG. 3B), MFZ 2-74 (R^1=Me; R^2,3=F; R^4=CO2-^iPr) (FIG. 3C), 15 (FIG. 3D), and 14 (FIG. 3E). […]

NET [6] = target: T5, NET (Rattus norvegicus, UniProt Q63380); format: binding; settings: read-out: NET [3H]nisoxetine Ki ± SEM; rat brain membranes; incubation time 1 h
muscarinic M1 receptor [7] = target: T3, muscarinic M1 receptor; settings: read-out: M1 [3H]pirenzepine Ki ± SEM, cited from earlier work
SERT [8] = target: T2, SERT; settings: read-out: SERT [3H]citalopram Ki ± SEM, cited from earlier work
NET [9] = target: T5, NET; settings: read-out: NET [3H]nisoxetine Ki ± SEM; comparative data taken from Agoston et al. 1997; cited from earlier work
[10] = Model For Reducing Effect of Nicotine (nicotine discrimination); format: in vivo, rat; settings: rats; dose 3.0 mg/kg; nicotine only control 50%
From the text: Model For Reducing Effect of Nicotine. Food-deprived rats were trained to press one lever for a food pellet after nicotine administration and a second lever after vehicle administration. Pellets of food were delivered intermittently, so that every twentieth response produced food. Using this procedure, the only cue for the rat regarding which lever occasionally pays off with a food pellet, is the subjective effect of the nicotine. When the rats were accurately and reliably identifying the nicotine injections (approximately all of its responses on the lever that occasionally pays off after nicotine or saline), testing began. The rats were pretreated with a compound of Formula III before nicotine injection, and the experiment progressed as described above, except responses on either lever intermittently produced food. A 50% effective nicotine dose was reduced to low levels of effectiveness upon administration of a compound of Formula III.

DAT [11] = target: T1, DAT
[12] = ratio of respective Ki values, greater than 1 = DAT selective
[13] = read-out: DAT [3H]WIN 35,428 Ki ± SEM
[14] = rat brain membranes, read-out: M1 [3H]pirenzepine Ki ± SEM
[15] = comparative data taken from Agoston et al. 1997

T1 sequence (P23977 whole entry): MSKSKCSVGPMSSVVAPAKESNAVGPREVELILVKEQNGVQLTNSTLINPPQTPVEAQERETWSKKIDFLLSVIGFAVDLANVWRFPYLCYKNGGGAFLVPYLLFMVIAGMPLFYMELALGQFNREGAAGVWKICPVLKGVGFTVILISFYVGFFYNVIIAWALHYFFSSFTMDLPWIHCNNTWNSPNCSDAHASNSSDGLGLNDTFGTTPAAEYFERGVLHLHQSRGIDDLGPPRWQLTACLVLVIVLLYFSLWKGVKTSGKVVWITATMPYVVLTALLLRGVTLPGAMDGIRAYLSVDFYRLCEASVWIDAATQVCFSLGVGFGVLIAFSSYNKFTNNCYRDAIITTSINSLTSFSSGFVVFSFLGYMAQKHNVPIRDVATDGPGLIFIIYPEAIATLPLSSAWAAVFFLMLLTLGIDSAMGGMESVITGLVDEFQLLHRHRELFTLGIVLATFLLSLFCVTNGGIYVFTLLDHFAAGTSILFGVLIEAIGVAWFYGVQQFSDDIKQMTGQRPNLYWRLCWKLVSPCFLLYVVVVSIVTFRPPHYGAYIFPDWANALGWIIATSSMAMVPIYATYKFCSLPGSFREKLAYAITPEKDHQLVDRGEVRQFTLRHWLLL
T5 sequence (Q63380 1-617): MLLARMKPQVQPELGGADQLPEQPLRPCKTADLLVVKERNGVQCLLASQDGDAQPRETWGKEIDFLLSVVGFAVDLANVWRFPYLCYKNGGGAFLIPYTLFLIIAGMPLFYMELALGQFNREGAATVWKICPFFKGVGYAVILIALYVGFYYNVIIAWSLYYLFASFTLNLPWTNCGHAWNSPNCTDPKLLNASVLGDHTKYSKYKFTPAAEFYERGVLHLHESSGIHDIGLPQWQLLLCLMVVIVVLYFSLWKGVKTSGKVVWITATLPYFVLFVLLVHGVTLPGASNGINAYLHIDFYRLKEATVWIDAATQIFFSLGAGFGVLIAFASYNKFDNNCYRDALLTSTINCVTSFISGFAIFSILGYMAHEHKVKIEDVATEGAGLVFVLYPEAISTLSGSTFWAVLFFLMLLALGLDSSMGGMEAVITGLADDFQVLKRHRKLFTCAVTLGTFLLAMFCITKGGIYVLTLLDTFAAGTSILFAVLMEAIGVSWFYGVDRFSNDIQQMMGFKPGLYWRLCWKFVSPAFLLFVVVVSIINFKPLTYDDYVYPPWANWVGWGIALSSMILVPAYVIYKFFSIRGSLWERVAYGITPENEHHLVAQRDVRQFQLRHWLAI
T2 sequence (P31652 whole entry): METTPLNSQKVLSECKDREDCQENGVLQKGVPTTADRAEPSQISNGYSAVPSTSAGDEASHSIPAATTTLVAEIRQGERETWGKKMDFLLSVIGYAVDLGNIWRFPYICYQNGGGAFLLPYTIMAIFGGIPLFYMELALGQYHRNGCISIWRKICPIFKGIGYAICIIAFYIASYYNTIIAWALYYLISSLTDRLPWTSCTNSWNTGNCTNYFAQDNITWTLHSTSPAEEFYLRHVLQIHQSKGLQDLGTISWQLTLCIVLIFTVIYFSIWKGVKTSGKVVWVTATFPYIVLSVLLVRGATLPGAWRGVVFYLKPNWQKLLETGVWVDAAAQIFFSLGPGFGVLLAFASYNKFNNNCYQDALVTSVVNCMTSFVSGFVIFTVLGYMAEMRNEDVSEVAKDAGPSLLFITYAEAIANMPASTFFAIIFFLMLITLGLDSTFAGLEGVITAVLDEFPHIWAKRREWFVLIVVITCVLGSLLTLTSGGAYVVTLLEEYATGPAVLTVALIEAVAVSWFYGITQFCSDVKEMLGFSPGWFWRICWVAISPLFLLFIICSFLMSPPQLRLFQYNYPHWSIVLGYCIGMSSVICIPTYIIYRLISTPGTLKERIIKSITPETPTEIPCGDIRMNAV
T4 sequence (Q61327 whole entry): as the sequence (P23977 whole entry) above, with S21P, A57V, A194S, H600R, L619V counted along it

SMILES	Binding selectivity DAT/NET (NET [1]; [12])	Ki (DAT [2]; [13]) [nM]	Ki (SERT [3]) [nM]	Binding selectivity DAT/SERT (SERT [3]; [12])	Ki (muscarinic M1 receptor [4]; [14]) [nM]	Binding selectivity DAT/M1 (muscarinic M1 receptor [4]; [12])	other results
C=C[C@@H]1C2CCC(C[C@@H]1OC(c1ccc(F)cc1)c1ccc(F)cc1)N2C (stereo partly drawn) [Compound 4, S-(+)-2β-Ethenyl-3α-[bis(4-fluorophenyl)methoxy]tropane]	261	1.81	1790 ± 114	989	163 ± 23.1	90	–
CC(C)OC(=O)C1C(OC(c2ccc(F)cc2)c2ccc(F)cc2)CC2CCC1N2C (stereo not shown) [MFZ 2-74]	–	–	–	–	–	–	Time of maximal displacement of [125I]RTI-121 after injection ([5]; IP injection of displacer, striatum vs cerebellum, FIG. 3): not obtained; Time at which maximal displacement of [125I]RTI-121 would likely be obtained ([5]; IP injection, FIG. 3C, maximal displacement not obtained in the test): > 3 h
COC(=O)CC[C@@H]1C2CCC(C[C@@H]1OC(c1ccc(F)cc1)c1ccc(F)cc1)N2C (stereo partly drawn) [Compound 6, S-(+)-2β-(2′-(Methoxycarbonyl)ethyl)-3α-[bis(4-fluorophenyl)methoxy]tropane]	121	3.74	1070 ± 118	286	3110 ± 435	831	–
COC(=O)/C=C/[C@@H]1C2CCC(C[C@@H]1OC(c1ccc(F)cc1)c1ccc(F)cc1)N2C (stereo partly drawn) [Compound 5, S-(+)-2β-(2′-(methoxycarbonyl)eth-1′-enyl)-3α-[bis(4-fluorophenyl)methoxy]tropane]	54	4.69 ± 0.6	572 ± 51	115	1380 ± 81	278	Ki (DAT [2]): 4.96 nM
COC(=O)[C@@H]1C2CCC(C[C@@H]1OC(c1ccc(F)cc1)c1ccc(F)cc1)N2C (stereo partly shown) [Compound 1a]	91	2.94	689 ± 58.4	234	133 ± 4.16	45	Ki (NET [6]): 269 nM
CN1C2CCC1[C@@H](CO)[C@@H](OC(c1ccc(F)cc1)c1ccc(F)cc1)C2 (stereo partly drawn) [Compound 2, S-(+)-2β-hydroxymethyl-3α-[bis(4-fluorophenyl)methoxy]tropane]	279	–	910 ± 65	258	109 ± 15.1	31	Ki (DAT [2]): 3.52 ± 0.42 nM
CCOC(=O)[C@@H]1C2CCC(C[C@@H]1OC(c1ccc(F)cc1)c1ccc(F)cc1)N2 (stereo partly drawn) [Compound 9, S-(+)-N-nor-2β-Carboethoxy-3α-[bis(4-fluorophenyl)methoxy]tropane]	63	8.87 ± 1.02	2150 ± 222	242	17100 ± 2480	–	–
C=CCN1C2CCC1[C@@H](C(=O)OCC)[C@@H](OC(c1ccc(F)cc1)c1ccc(F)cc1)C2 (stereo partly drawn) [Compound 11, S-(+)-N-Allyl-2β-carboethoxy-3α-[bis(4-fluorophenyl)methoxy]tropane]	85	11 ± 0.94	2280 ± 125	207	11400 ± 1650	1036	–
CN1C2CCC1[C@@H](COC(=O)CCCc1ccc(N)cc1)[C@@H](OC(c1ccc(F)cc1)c1ccc(F)cc1)C2 (stereo partly drawn) [Compound 8, S-(−)-2β-{[4-(4′-Aminophenyl)butyryl]oxymethyl}-3α-[bis(4-fluorophenyl)methoxy]tropane]	–	27.6 ± 0.85	1390 ± 145	–	342 ± 33.7	reduced DAT/M1 selectivity	Binding selectivity DAT/NET (NET [1]): 16; Binding selectivity DAT/SERT (SERT [3]): 50; Binding selectivity DAT/M1 (muscarinic M1 receptor [4]): 12
CCOC(=O)C1C(OC(c2ccc(Cl)cc2)c2ccc(Cl)cc2)CC2CCC1N2C (racemic) [(±)-15]	–	–	–	–	–	–	Ki (DAT [2]; read-out: DAT binding Ki): 22 ± 0.84 nM
COC(=O)C1C(OC(c2ccc(Cl)cc2)c2ccc(Cl)cc2)CC2CCC1N2C (racemic) [(±)-14]	–	–	–	–	–	–	Ki (DAT [2]; read-out: DAT binding Ki): 23.4 ± 1.5 nM
CCCCN1[C@@H]2CC[C@H]1C[C@@H](OC(c1ccc(F)cc1)c1ccc(F)cc1)C2 [Compound 12]	153	–	–	139	–	41	Ki (muscarinic M1 receptor [7]): 399 ± 26.8 nM; Ki (SERT [8]): 1350 ± 151 nM; Ki (NET [9]): 1490 ± 190 nM; Effect (of a 50% effective nicotine dose after pretreatment) [10]: 2.67%; Ki (DAT [11]; comparative data taken from Agoston et al. 1997; read-out: DAT [3H]WIN 35,428 Ki ± SEM; cited from earlier work): 9.7 ± 0.91 nM
C=CCN1[C@@H]2CC[C@H]1C[C@@H](OC(c1ccc(F)cc1)c1ccc(F)cc1)C2 [Compound 13]	178	–	–	324	–	20	Ki (muscarinic M1 receptor [7]; [15]): 177 ± 21.1 nM; Ki (SERT [8]; [15]): 2850 ± 62.5 nM; Ki (NET [9]): 1570 ± 242 nM; Effect (of a 50% effective nicotine dose after pretreatment) [10]: 22.4%; Ki (DAT [11]; read-out: DAT [3H]WIN 35,428 Ki ± SEM; comparative data taken from Agoston et al. 1997; cited from earlier work): 8.79 ± 0.52 nM
CCCCN1C2CCC1[C@@H](C(=O)OCC)[C@@H](OC(c1ccc(F)cc1)c1ccc(F)cc1)C2 (stereo partly drawn) [Compound 10, S-(+)-N-Butyl-2β-carboethoxy-3α-[bis(4-fluorophenyl)methoxy]tropane]	71	8.18 ± 0.17	2500 ± 327	305	3200 ± 298	391	–
CN1[C@@H]2CC[C@H]1[C@H](COC(=O)CCCc1ccc([N+](=O)[O-])cc1)[C@@H](OC(c1ccc(F)cc1)c1ccc(F)cc1)C2 [Compound 7, S-(+)-2β-{[4-(4′-Nitrophenyl)butyryl]oxymethyl}-3α-[bis(4-fluorophenyl)methoxy]tropane]	–	–	3780 ± 390	–	–	–	Ki (muscarinic M1 receptor [4]): 708 ± 102 nM
CCOC(=O)[C@@H]1C2CCC(C[C@@H]1OC(c1ccc(F)cc1)c1ccc(F)cc1)N2C (stereo partly shown) [Compound 1b]	91	6.87 ± 0.33	1850 ± 270	269	1890 ± 132	275	Ki (NET [6]): 629 ± 31 nM
